In patent US20200087625A1, “METHODS FOR ISOLATING, EXPANDING AND ADMINISTERING CANCER SPECIFIC CD8+ T CELLS” (priority 2017, published 2020):

Key:
dendritic cells = assay: Dendritic cell activation and CD8+ T cell recruitment in mLN and lungs; format: in vivo, BALB/c mice; details: day 7
Protocol: FIGS. 25A-25F. Innate immune cells, NK cells and dendritic cells are activated following 1V270 therapy and contribute to anti-metastatic effects (A-C) Systemic administration of 1V270 activates dendritic cells and increases CD8^+ cell recruitment in the lung draini lymph node. (A) BALB/c mice (n=S/group) were treated with 1V270 on day −1 and then tumor cells were i.v. administered on day 0. Seven days later, mediastinal lymph node (mLN) cells were stained for dendritic cells (DC; CD45^+CD11c^+MHC classll^+). (B) DCs were further stained for CD80 and CD86. (C) The mLN cells were also stained for central memory CD8^+ T cells (CD3+CD8^+CD44^+CD62L^+), effector memory CD8^+ T cells (CD3+CD8^+CD44^+CD62L^+), and naive CD8^+ T cells (CD3+CD8^+CD44^−CD62L^−). Each dot indicates an individual mouse and horizontal and vertical bars indicate means±SEM. Data are representative of 3 independent experiments showing similar results. *P<0.05, **P<0.01 by Mann-Whitney U test comparing the individual groups. (D-F) In vivo imaging analyses using GLF•expressing 4T1 cells (4T1-GLF). (D) BALB/c mice (n=14-15/group) were i.p, administered with 200 μg 1V270 or vehicle. Next day, 2×10^4 4T1-GLF cells were i.v. injected through the tail vein. Tumor signals were quantified by IVIS. Data (mean±SEM) were pooled from 3 independent experiments showing similar results. *P<0.05, **P<0.01 by two-way ANOVA using a Bonferroni post hoc test comparing treatment groups against the vehicle group. […] (E,F) NK cells recruited by 1V270 therapy prevent colonization of 4T1 cells. (E) BALB/c mice (n=G−7/group) were treated with 1V270 (200 μg/injection) on day −1 and then tumor cells were i.v. administered on day 0. On the next day, lung cells were stained for NK markers (CD45^+[…] NKp46^+CD49^+) and analyzed by flow cytometry. […] Tumor signals were analyzed as described above. […]
Since the 1V270 therapy induced a tumor-specific CD8^+ T cell response in the 4T1 model, we evaluated whether the therapy activated APCs in the lungs, and/or in the draining lymph nodes. […]

LLC-GLF cells = assay: IV metastasis model of Lewis lung carcinoma (LLC); format: in vivo, mice; details: systemic 1V270 day -1
Protocol: FIGS. 27A-27D. […] Therapeutic effects of 1V270 were evaluated in IV metastatic models of 816 melanoma (A, B) and LLC (C, D). BG-albino mice (n=B-10) (A, C), C57BL6 wild type mice (n=15-20) (B and D), were i.p. administered with 200 μg 1V270 or vehicle!iNext day, 5×10^5 B16-GLF cells (A) or 1×10^5 LLC-GLF cells (c) were i.v. administered (A,C). The tumor signals were quantified by IVIS at day 14. […] (B,D) The mice were monitored daily and were euthanized upon reaching the criteria according to UCSD IACUC guidelines. The survival data were analyzed by Log-Rank test. Data were pooled from 2 independent experiments showing similar results and were analyzed by Living Image® software. […] Statistical differences were analyzed by the Mann-Whitney U test comparing 1V270 treatment groups against the vehicle. **P<0.05.
GFP and luciferase (GLF)-expressing tumor cells (2×10^4 of 4T1-GLF, 5×10^5 of B16-GLF, and […] of LLC-GLF) were i.v. injected into BALB/c mice for 4T1 models, BG-albino or wild-type C57BU6 for B16 melanoma or LLC models). […] Image data were acquired by 1 Ss exposure using the IVIS Spectrum and analyzed using the Living Image software, version 4.5.2 (Perkin Elmer, Waltham, Mass.). We confirmed that the tumor signals in the lungs at day 10 correlated with the number of lung metastasis determined on day 21, as well as the overall survival (Supplemental figures 10). […]

primary tumor = details: cited from earlier work

CCCCCCCCC=CCCCCCCCC(=O)OCC(COP(=O)(O)OCCNC(=O)c1ccc(Cn2c(=O)[nH]c3c(N)nc(OCCOC)nc32)cc1)OC(=O)CCCCCCCC=CCCCCCCCC (stereo not shown) [1V270]
frequencies of cells expressing co-stimulatory molecules (CD80 or CD86) (dendritic cells; 1V270 i.p. day -1): significantly increased
recruitment of CD8+ T cells (central memory, effector memory, naive) (dendritic cells; mLN): recruitment of CD8^+ T cells with memory and nalve phenotypes
population of CD11c+ dendritic cells (dendritic cells; mLNs and lungs, 1V270 i.p. day -1): increased in both mLNs and the lungs
lung metastasis (IVIS tumor signal) (LLC-GLF cells; LLC-GLF, day 14): inhibited lung metastasis by day 14
mouse survival (LLC-GLF cells; LLC): prolonged mouse survival
primary tumor growth (primary tumor; intratumoral administration): inhibits primary tumor growth
systemic cytokine induction (primary tumor; local (intratumoral) treatment): without causing systemic cytokine induction
